Where “and” joins values, the source holds several entries; their conditions need not be identical. Identical values can stand only once. Like-named read-outs stand apart in the source and are kept apart here. Where a SMILES comes first, the peptide text is derived from it.
What was measured:
[1] = target: HA (H1N1 hemagglutinin, Cat No: Z03181, GenScript); conditions: read-out: SPR KD
[2] = target: HA (H1N1 hemagglutinin, Cat No.: Z03181, GenScript); conditions: read-out: MST KD
[3] = test system: A/Roma-ISS/02/08 H1N1 oseltamivir-sensitive virus; conditions: A/Roma-ISS/02/08 oseltamivir-sensitive virus, 1 h
A/Parma/05/06 H3N2 [4] = conditions: A/Parma/05/06, 1 h
[5] = test system: A/Roma-ISS/02/08 H1N1 oseltamivir-sensitive virus; conditions: reference peptides; ref Scala et al. (2017) [14]; read-out: HI Titer (IC50) A/Roma-ISS/02/08 H1N1; cited from earlier work
Cytotoxicity assay = type: cell-based, canine; conditions: dog, MDCK cells
Procedure: This procedure was performed as reported elsewhere. Briefly, two-fold serial dilutions of each peptide in culture medium were incubated at 37 °C with confluent MDCK cells grown in 96-well tissue culture microplates (Nalge Nunc Europe Ltd., Neerijse, Belgium). After 24 h, the following parameters were evaluated: cell morphology, which was examined by light microscopy; cell viability, which was determined by neutral red staining as already described by us; and cell proliferation, which was evaluated quantitatively by microscopic counts after dispersion into individual cells with trypsin.

A/Parma/05/06 H3N2 [6] = conditions: MDCK cells; ref Scala et al. (2017) [14]; cited from earlier work
A/Roma-ISS/02/08 H1N1 = conditions: MDCK cells; ref Scala et al. (2017) [14]; cited from earlier work
A/Parma/05/06 H3N2 [7] = test system: A/Parma/05/06 H3N2; parameters: method as in Scala et al. (2017) [14]; conditions: reference peptides; ref Scala et al. (2017) [14]; read-out: HI Titer (IC50) A/Parma/05/06 H3N2; cited from earlier work
A/Parma/24/09 H1N1 = conditions: MDCK cells; ref Scala et al. (2017) [14]; cited from earlier work

Compound	Kd [1]	Kd [2]	other results
CC(=O)N[C@@H](C)C(=O)N[C@@H](CCCCN)C(=O)N[C@@H](Cc1c[nH]cn1)C(=O)N[C@@H](CO)C(N)=O [Peptide 3] (Ac-AKHS-NH2)	2700 ± 40 nM	3120 ± 110 nM	IC50 [3]: 0.6 nM; IC50 (A/Parma/05/06 H3N2 [4]): 12 nM
CC(=O)N[C@@H](CO)C(=O)N[C@@H](CC(C)C)C(=O)N[C@@H](C)C(=O)N[C@@H](CS)C(N)=O [Peptide 9] (Ac-SLAC-NH2)	2570 ± 340 nM	5.8 ± 0.3 nM	
CC(=O)N[C@@H](CO)C(=O)N[C@@H](C)C(=O)N[C@@H](CC(=O)O)C(=O)N[C@@H](CS)C(N)=O [Peptide 8] (Ac-SADC-NH2)	2190 ± 510 nM	6380 ± 210 nM	
CC(=O)N[C@@H](CO)C(=O)N[C@@H](CC(C)C)C(=O)N[C@@H](CC(=O)O)C(=O)N[C@@H](C)C(N)=O [Peptide 10] (Ac-SLDA-NH2)	343 ± 19 nM	2690 ± 90 nM	IC50 (A/Parma/05/06 H3N2 [4]): 0.0021 nM
CC(=O)N[C@@H](CO)C(=O)N[C@@H](CCCCN)C(=O)N[C@@H](Cc1c[nH]cn1)C(=O)N[C@@H](CO)C(N)=O [Peptide 1, Ac-SKHS-NH2] (Ac-SKHS-NH2)			IC50 [5]: 0.1 nM; CC50 at 24 h (Cytotoxicity assay): > 25000 nM; EC50 (A/Parma/05/06 H3N2 [6]): 0.005 nM; EC50 (A/Roma-ISS/02/08 H1N1): 0.003 nM; IC50 (A/Parma/05/06 H3N2 [7]): 12 nM
CC(=O)N[C@@H](CO)C(=O)N[C@@H](CC(C)C)C(=O)N[C@@H](CC(=O)O)C(=O)N[C@@H](CS)C(N)=O [Peptide 2, Ac-SLDC-NH2] (Ac-SLDC-NH2)			EC50 (A/Parma/24/09 H1N1): 0.0046 nM; EC50 (A/Parma/05/06 H3N2 [6]): 0.0043 nM; IC50 (A/Parma/05/06 H3N2 [7]): 1.5 nM
CC(=O)N[C@@H](C)C(=O)N[C@@H](CC(C)C)C(=O)N[C@@H](CC(=O)O)C(=O)N[C@@H](CS)C(N)=O [Peptide 7] (Ac-ALDC-NH2)	27.7 ± 1.7 nM	21200 ± 410 nM	
CC(=O)N[C@@H](CO)C(=O)N[C@@H](CCCCN)C(=O)N[C@@H](Cc1c[nH]cn1)C(=O)N[C@@H](C)C(N)=O [Peptide 6] (Ac-SKHA-NH2)	6750 ± 810 nM	11400 ± 170 nM	
CC(=O)N[C@@H](CO)C(=O)N[C@@H](C)C(=O)N[C@@H](Cc1c[nH]cn1)C(=O)N[C@@H](CO)C(N)=O [Peptide 4, Ac-SAHS-NH2] (Ac-SAHS-NH2)	3.57 ± 0.12 nM	8.22 nM and 8.2 nM	CC50 at 24 h (Cytotoxicity assay): > 25000 nM
CC(=O)N[C@@H](CO)C(=O)N[C@@H](CCCCN)C(=O)N[C@@H](C)C(=O)N[C@@H](CO)C(N)=O [Peptide 5] (Ac-SKAS-NH2)	1030 ± 10 nM	7010 ± 90 nM	

Source: article PMC8537277 (Pharmaceuticals, 2021)
